Laboratory results published in paper PMC6839174, “Targeting the Formyl Peptide Receptor type 1 to prevent the adhesion of ovarian cancer cells onto mesothelium and subsequent invasion” (Journal of Experimental & Clinical Cancer Research : CR, 2019).
Non-standard residues stand in square brackets, D forms with d. No end group written: not given here. *: point of attachment. Nle = CCCC[C@H](N)C(=O)O; For = O=C*

Legend:
SKOV-3 cells [1] = test: Adhesion kinetic of SKOV-3 cells onto Vn monitored in real time (xCELLigence); type: cell-based, Human; details: SKOV-3 pre-exposed to 100 nM peptide, 2 h, cell index, quadruplicate representative of 3 replicates
Description: This assay was performed using E-16-well plates and the xCELLigence Real Time Cell Analysis technology. Bottom wells were coated with serum-free medium, 5 μg mL Vn, 5 μg mL Fn, 5 μg mL Lm or 15 μg mL Coll diluted in serum-free medium prior to seeding cells (1 × 10^4 cells/well) suspended in serum-free medium. Cells that adhere to the bottom of plates cause impedance changes which are proportional to the number of cells. The impedance value of each well was automatically monitored in real-time for at least 2 h and expressed as a cell index value. The experiments were performed three times in quadruplicate.

FPR1 [2] = test: Ligand binding assay with FITC-RI-3 on primary EOC cells; set-up: species or system human; details: for prevention of FITC-RI-3 binding by unlabeled peptide: primary EOC cells, 100 nM peptide pre-incubated 60 min at 4 °C, then 10 nM FITC-RI-3 60 min at 4 °C, three experiments
Description: EOC cells were pre-incubated with diluents or the indicated unlabeled peptides for 60 min at 4 °C (to avoid internalization), extensively rinsed with phosphate buffer saline (PBS), exposed to 10 nM FITC-RI-3 diluted in PBS, for additional 60 min at 4 °C and again rinsed with PBS. Quantification of cell associated fluorescence was assessed by reading cells with the fluorescence plate reader Victor 3. The experiments were performed three times in duplicate.

FPR1 [3] = test: Agonist-dependent FPR1 internalization in EOC cells (confocal microscopy); type: cell-based, human; details: primary EOC cells, 10 nM fluorescent peptide, 30 min at 37 °C
Description: Cells (2 × 10^4/sample) were seeded on glass coverslips and cultured for 24 h in growth medium. Then, slides were washed with PBS, fixed with 2.5% formaldehyde in PBS for 10 min at 4 °C and incubated for 1 h at 4 °C with 2 μg/mL R4 anti-uPAR mAb or 1:100 rabbit anti-FPR1 Ab (#113531Ab, Abcam). Then, 1:700 goat Alexa Fluor 488 anti-rabbit IgG, or rabbit Alexa Fluor 488-conjugated F(ab’)2 fragment of anti-mouse IgG (Molecular Probes) were applied to slides at 23 °C for 40 min. Nuclear staining was performed with 4-6-diamidino-2-phenylindole dye (DAPI). To analyze agonist-dependent FPR1 internalization, cells grown on glass slides were exposed to 10 nM FITC-fMLF or 10 nM FITC-RI-3 diluted in serum-free DMEM for 30 min at 37 °C as described. After extensive washing with PBS, coverslips were mounted using 20% (w/v) mowiol, visualized with the 510 META-LSM confocal microscope (Carl Zeiss).

cell migration = details: FITC-RI-3, compared with non-fluorescent peptide; ref [38]; cited from earlier work
Excerpt: In order to obtain primary cultures of EOC cells, representative fragments of tissue samples were fragmented and cells recovered, as described in the Methods. By enzymatic digestion of a HGSC tissue sample (patient #5), a primary cell culture expressing high levels of both uPAR and FPR1 on cell surface as shown by IHC, was obtained (Figs. 4 and 5a). Subsequent sub-cloning of isolated cell clusters (Fig. 5b) followed by five passages allowed us to obtain an adherent, homogeneous, CD326 positive cell population. These EOC cells express a considerable amount of both uPAR and FPR1 as shown by West ...

SKOV-3 cells [4] = test: Adhesion of SKOV-3 cells onto extracellular matrix proteins (24-well plates, cell counting); type: cell-based, Human; details: SKOV-3 pre-incubated with 100 nM peptide 30 min at 37 °C, 2 h; for cell adhesion onto Coll, Fn or Lm after desensitization: collagen, fibronectin, laminin; for cell adhesion onto Vn after desensitization: vitronectin, means ± SD of three independent experiments
Description: Adhesion assays were performed using 24 multi-well plates coated with 1% BSA, 5 μg mL vitronectin (Vn), 5 μg mL fibronectin (Fn), 5 μg mL laminin (Lm) or 15 μg mL collagen (Coll) diluted in serum-free medium. Sub-confluent cells were harvested by a mild trypsinization, incubated with 10% FBS / DMEM for 1 h at 37 °C, 5% CO2, acid treated with a buffer containing 50 mM glycin-HC1, 0.1 M NaCl, pH 3 for 4 min at 22 °C, to remove receptor-bound ligands, and counted. Viable cells (2 × 10^5 cells per well) were plated in serum-free medium, in the absence or presence of 2 μg/mL R3 mAb recognizing the DI uPAR domain, 2 μg/mL399 anti-uPAR (American Diagnostica), 2 μg/mL anti-uPAR84-95 (PRIMM), 2 μg/mL anti-α-tubulin (Cell Signaling) Abs or 10 nM RI-3, and allowed to adhere for 2 h at 37 °C, 5% CO2. […] At the end of the assay, adherent cells were removed with 0.05% trypsin, and counted. The number of adherent cells was expressed as a percentage of the basal cell adhesion (CTRL). The experiments were performed at least three times in triplicate.

FPR1 [5] = details: 100 nM peptide, 30 min at 37 °C; ref [37], [38]; cited from earlier work
EOC cells = test: EOC cell adhesion to and crossing of mesothelial cell monolayers (summary statement); type: cell-based, human; details: EOC cells exposed to RI-3 or desensitized with an excess of SRSRY
Description: HPMCs (1 × 10^5 cells/well) suspended in growth medium, were seeded in 24-well plates and allowed to adhere for about 20 h until they form a confluent monolayer, prior to seeding GFP-tagged EOC cells suspended in growth medium plus diluents or 10 nM RI-3. At the indicated times, plates were accurately washed with PBS and cell-associated fluorescence was assessed by a fluorescence plate reader a fluorescence plate reader (Victor 3, Perkin Elmer), using 485 nm excitation and 535 nm emission filters. The experiments were performed three times in triplicate.
HPMCs (5 × 10^3 cells/well) suspended in growth medium, were seeded in E-16-well plates and allow to adhere for 18–20 h until they form a confluent monolayer, prior to seeding EOC cells (2 × 10^4 cells/well) in growth medium plus/minus 10 nM RI-3. When HPMCs are challenged with invading cells, there is a drop in electrical resistance within 2–4 h which is monitored in real-time as the Cell Index changes due to the rupture of mesothelium. The experiments were performed three times in quadruplicate.

[6] = tested on: cell migration and ECM attachment; details: independently of the uPA catalytic activity; ref [14], [24]–[26]; cited from earlier work
Excerpt: Ovarian cancer cells detach from the primary tumor and float in the ascitic fluid as single cells or multicellular, chemo-resistant spheroids. Then, floating cancer cells must resist anoikis triggered by lack of attachment to the mesothelium to evade clearance through the peritoneal lymphatics.

vitronectin receptor = tested on: vitronectin receptor; set-up: method as in PMID 15866865, PMID 20880257; details: inside-out mechanism involving PKC, AKT and MAPK; ref [26], [28]; cited from earlier work

| Substance | adhesion onto Vn in real time after desensitization (SKOV-3 cells [1]) | FPR1 internalization (FPR1 [3]) | cell adhesion onto Coll, Fn or Lm after desensitization (SKOV-3 cells [4]) | cell adhesion onto Vn after desensitization (SKOV-3 cells [4]) | prevention of FITC-RI-3 binding by unlabeled peptide (FPR1 [2]) | availability of FPR1 on cell surface after desensitization (FPR1 [5]) | regulation of cell migration and ECM attachment [6] | FPR1 interaction activating the vitronectin receptor (vitronectin receptor) | further results |
| --- | --- | --- | --- | --- | --- | --- | --- | --- | --- |
| ARARY [control peptide ARARY] | ineffective |  |  |  |  |  |  |  |  |
| Ac-(D)-Tyr-(D)-Arg-Aib-(D)-Arg-Ahx-Lys (N^ɛ-FITC)-NH2 [FITC-RI-3, fluorescein-conjugate of RI-3] |  | little or no internalization |  |  |  |  |  |  | binding of FITC-RI-3 to EOC cell surface (FPR1 [2]; primary EOC cells (patient #5), 10 nM FITC-RI-3 in PBS, 60 min at 4 °C, fluorescence): specific, saturable RI-3 uptake on EOC cell surface; FPR1 binding and inhibition of cell migration (cell migration): binding FPR1 and inhibiting cell migration like the non-fluorescent peptide |
| For-[Nle]LF[Nle]YK [FITC-fMLF, fluorescein conjugate hexapeptide Formyl-Nle-Leu-Phe-Nle-Tyr-Lys, reference compound] |  | caused FPR1 internalization |  |  |  |  |  |  |  |
| N-Formyl-L-methionyl-L-leucyl-L-phenylalanine [fMLF] | abrogates cell capability to adhere onto Vn |  | not onto Coll, Fn or Lm | lose the ability to adhere onto Vn | prevented | unavailability of FPR1 on cell surface |  |  |  |
| Ser-Arg-Ser-Arg-Tyr [SRSRY, synthetic shorter pentapeptide uPAR88–92] | abrogates cell capability to adhere onto Vn |  | not onto Coll, Fn or Lm | lose the ability to adhere onto Vn | prevented | unavailability of FPR1 on cell surface | potent regulators of cell migration and ECM attachment | internalizes and activates the vitronectin receptor | ability to cross mesothelial cell monolayers (abstract) (EOC cells): losing the ability to cross them |
| uPAR84–95: The domain boundary between DI-DII (uPAR84–95 sequence) (AVTYSRSRYLEC; UniProt Q03405 106-117, looked up, fragment) |  |  |  |  |  |  | potent regulators of cell migration and ECM attachment | internalizes and activates the vitronectin receptor |  |
